Source: patent publication US10570184B2, “GLP-1/glucagon receptor co-agonists for medical use” (Novo Nordisk A/S, priority 2014, dated 2020)
Starred links: 1 amine or outer side, 2 acyl side, 3 side chain; linkers in the order of their positions; H or OH if unused. Non-standard residues stand in square brackets, D forms with d. Residues, ends and D or L forms follow the SMILES beside them. Groups on a side chain read outwards from the residue. *: point of attachment. C18 diacid = O=C(O)CCCCCCCCCCCCCCCCC(=O)*; γGlu = O=C(O)[C@H](CCC(=O)[*:2])N[*:1]; Ac4c = NC1(C(=O)O)CCC1; AEEA = NCCOCCOCC(=O)O; Aib = CC(C)(N)C(=O)O

molecular target: T1, human glucagon receptor (Homo sapiens, UniProt P47871); test: Assay (I)(b) glucagon receptor activation, CRE luciferase reporter gene assay in BHK cells; format: cell-based; details: without presence of serum albumin; read-out: GlucagonR EC50 (pM), [Assay (I)(b)]
T1 construct: expressed in transfected cells; host or cells: membranes of BHK cells, clone BHK hGCGR A3*25
Procedure: The purpose of this example was to test the activity or potency, of the glucagon derivatives of the invention, in vitro. The in vitro potency is the measure of human GLP-1 receptor (GLP-1R) or glucagon receptor (glucagonR) activation, respectively, in a whole cell assay. In vitro potency was determined by measuring the response of human GLP-1 or glucagon receptor, respectively, in a reporter gene assay. The assay was performed in a stably transfected BHK cell line that expresses either the human GLP-1 receptor or the human glucagon receptor and contains the DNA for the cAMP response element (CRE) coupled to a promoter and the gene for firefly luciferase (CRE luciferase). […] When assay incubation was completed, the luciferase substrate (luciferin) was added and the enzyme converted luciferin to oxyluciferin and produces bioluminescence. The luminescence was measured as the readout for the assay. The cells used in this assay (clone pLJ6′-4-25) were BHK cells with BHK570 as a parent cell line expressing the CRE luciferase gene (clone BHK/KZ10-20-48) and were established by further transfection with the human glucagon receptor (clone pLJ6′ in pHZ-1 vector). The cells were cultured at 5% CO2 in DMEM medium with 10% FBS, 1×GlutaMAX, 1 mg/ml G418, 240 nM MTX (methotrexate) and 1% pen/strep (penicillin/streptomycin). They were aliquoted and stored in liquid nitrogen. Before each assay, an aliquot was taken up and washed three times in PBS before being suspended at the desired concentration in assay medium. For 96-well plates the suspension was made to give a final concentration of 5×10EE3 cells/well. The following chemicals were used in the assay: Pluronic F-68 (10%) (Gibco 2404), ovalbumin (Sigma A5503), DMEM w/o phenol red (Gibco 11880-028), 1 M Hepes (Gibco 15630), Glutamax 100× (Gibco 35050) and steadylite plus (PerkinElmer 6016757). Assay Medium consisted of DMEM w/o phenol red, 10 mM Hepes, 1× GlutaMAX, 2% Ovalbumin and 0.2% Pluronic F-68. Cell stocks were thawed in a 37° C. water bath. Cells were washed three times in PBS. The cells were counted and adjusted to 5×10EE3 cells/50 μl (1×10EE5 cells/ml) in Assay Medium. A 50 μl aliquot of cells was transferred to each well in the assay plate. Stocks of the test compounds and reference compounds were diluted to a concentration of […] in Assay Medium. Compounds were diluted 10-fold to give the following concentrations: 2×10EE-6 M, 2×10EE-7 M, 2×10EE-8 M; 2×10EE-9 M, 2×10EE-10 M, 2×10EE-11 M, 2×10EE-12 M and 2×10EE-13 M. For each compound a blank assay medium control was also included. A 50 μl aliquot of compound or blank was transferred from the dilution plate to the assay plate. Compounds were tested at the following final concentrations: 1×10EE-6 M, 1×10EE-7 M, 1×10EE-8 M; 1×10EE-9 M, 1×10EE-10 M, 1×10EE-11 M and 1×10EE-12 M and 1×10EE-13 M. The assay plate was incubated for 3 h in a 5% CO2 incubator at 37° C. The assay plate was removed from the incubator and allowed to stand at room temperature for 15 min. A 100 μl aliquot of steadylite plus reagent was added to each well of the assay plate (reagent is light sensitive). Each assay plate was covered with aluminum foil to protect it from light and shaken for 30 min at room temperature. Each assay plate was read in a Perkin Elmer TopCount NXT instrument. The data from the TopCount instrument was transferred to GraphPad Prism software. The software performed a non-linear regression (log(agonist) vs response-Variable slope (four parameter)). EC50 values were calculated by the software and reported in pM.

T1 sequence (P47871 26-477): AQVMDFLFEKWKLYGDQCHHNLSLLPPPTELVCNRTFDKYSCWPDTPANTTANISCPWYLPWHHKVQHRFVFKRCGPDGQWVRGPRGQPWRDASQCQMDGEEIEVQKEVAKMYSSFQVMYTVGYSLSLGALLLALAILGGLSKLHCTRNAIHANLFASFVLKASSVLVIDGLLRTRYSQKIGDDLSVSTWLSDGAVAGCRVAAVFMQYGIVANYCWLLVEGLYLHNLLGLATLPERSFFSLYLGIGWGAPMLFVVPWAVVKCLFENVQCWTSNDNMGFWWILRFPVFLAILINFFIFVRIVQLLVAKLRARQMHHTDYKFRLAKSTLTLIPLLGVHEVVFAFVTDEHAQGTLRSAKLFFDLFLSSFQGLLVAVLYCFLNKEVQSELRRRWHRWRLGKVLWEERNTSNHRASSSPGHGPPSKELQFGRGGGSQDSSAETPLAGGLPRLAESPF

| EC50 [pM] | Compound |
| --- | --- |
| 7 | CC[C@H](C)[C@H](NC(=O)[C@H](CC(C)C)NC(=O)[C@H](Cc1c[nH]c2ccccc12)NC(=O)[C@H](C)NC(=O)[C@@H](NC(=O)[C@H](Cc1ccccc1)NC(=O)[C@H](CC(=O)O)NC(=O)[C@H](CCCNC(=N)N)NC(=O)[C@H](C)NC(=O)[C@H](CCCNC(=N)N)NC(=O)[C@H](CCCNC(=N)N)NC(=O)[C@H](C)NC(=O)[C@H](CC(=O)O)NC(=O)[C@H](CC(C)C)NC(=O)[C@H](Cc1ccc(O)cc1)NC(=O)[C@H](CCCCN)NC(=O)[C@H](CO)NC(=O)[C@H](Cc1ccc(O)cc1)NC(=O)[C@H](CC(=O)O)NC(=O)[C@H](CO)NC(=O)[C@@H](NC(=O)[C@H](Cc1ccccc1)NC(=O)[C@@H](NC(=O)CNC(=O)[C@H](CCC(N)=O)NC(=O)C(C)(C)NC(=O)[C@@H](N)Cc1c[nH]cn1)[C@@H](C)O)[C@@H](C)O)C(C)C)C(=O)N[C@@H](CCCCNC(=O)CC[C@H](NC(=O)CC[C@H](NC(=O)COCCOCCNC(=O)COCCOCCNC(=O)CC[C@H](NC(=O)CCCCCCCCCCCCCCCCC(=O)O)C(=O)O)C(=O)O)C(=O)O)C(=O)N[C@H](C(N)=O)[C@@H](C)O [Chem. 32, N^ε28-[(4S)-4-carboxy-4-[[(4S)-4-carboxy-4-[[2-[2-[2-[[2-[2-[2-[[(4S)-4-carboxy-4-(17-carboxyheptadecanoylamino)butanoyl]amino]ethoxy]ethoxy]acetyl]amino]ethoxy]ethoxy]acetyl]amino]butanoyl]amino]butanoyl]-[Aib2,Ala16,Arg20,Ala24,Ile27,Lys28]-Glucagon amide] (H-H[Aib]QGTFTSDYSKYLDARRARDFVAWLIK([γGlu-γGlu-AEEA-AEEA-γGlu-C18 diacid])T-NH2) |
| 66 | CC[C@H](C)[C@H](NC(=O)[C@H](CC(C)C)NC(=O)[C@H](Cc1c[nH]c2ccccc12)NC(=O)[C@H](C)NC(=O)[C@@H](NC(=O)[C@H](Cc1ccccc1)NC(=O)[C@H](CC(=O)O)NC(=O)[C@H](CCC(N)=O)NC(=O)[C@H](C)NC(=O)[C@H](CCCNC(=N)N)NC(=O)[C@H](CCCNC(=N)N)NC(=O)[C@H](CO)NC(=O)[C@H](CCC(=O)O)NC(=O)[C@H](CC(C)C)NC(=O)[C@H](Cc1ccc(O)cc1)NC(=O)[C@H](CCCCN)NC(=O)[C@H](CO)NC(=O)[C@H](Cc1ccc(O)cc1)NC(=O)[C@H](CC(=O)O)NC(=O)[C@H](CO)NC(=O)[C@@H](NC(=O)[C@H](Cc1ccccc1)NC(=O)[C@@H](NC(=O)CNC(=O)[C@H](CCC(N)=O)NC(=O)C(C)(C)NC(=O)[C@@H](N)Cc1c[nH]cn1)[C@@H](C)O)[C@@H](C)O)C(C)C)C(=O)N[C@@H](CCCCNC(=O)CC[C@H](NC(=O)CC[C@H](NC(=O)COCCOCCNC(=O)COCCOCCNC(=O)CC[C@H](NC(=O)CCCCCCCCCCCCCCCCC(=O)O)C(=O)O)C(=O)O)C(=O)O)C(=O)N[C@H](C(N)=O)[C@@H](C)O [Chem. 34, N^ε28-[(4S)-4-carboxy-4-[[(4S)-4-carboxy-4-[[2-[2-[2-[[2-[2-[2-[[(4S)-4-carboxy-4-(17-carboxyheptadecanoylamino)butanoyl]amino]ethoxy]ethoxy]acetyl]amino]ethoxy]ethoxy]acetyl]amino]butanoyl]amino]butanoyl]-[Aib2,Glu15,Ala24,Ile27,Lys28]-Glucagon amide] (H-H[Aib]QGTFTSDYSKYLESRRAQDFVAWLIK([γGlu-γGlu-AEEA-AEEA-γGlu-C18 diacid])T-NH2) |
| 12 | CC[C@H](C)[C@H](NC(=O)[C@H](CC(C)C)NC(=O)[C@H](Cc1c[nH]c2ccccc12)NC(=O)[C@H](CCC(N)=O)NC(=O)[C@@H](NC(=O)[C@H](Cc1ccccc1)NC(=O)[C@H](CCC(=O)O)NC(=O)[C@H](CCC(N)=O)NC(=O)[C@H](C)NC(=O)[C@H](CCCNC(=N)N)NC(=O)[C@H](CCCNC(=N)N)NC(=O)[C@H](CO)NC(=O)[C@H](CCC(=O)O)NC(=O)[C@H](CC(C)C)NC(=O)[C@H](Cc1ccc(O)cc1)NC(=O)[C@H](CCCCN)NC(=O)[C@H](CO)NC(=O)[C@H](CC(C)C)NC(=O)[C@H](CC(=O)O)NC(=O)[C@H](CO)NC(=O)[C@@H](NC(=O)[C@H](Cc1ccccc1)NC(=O)[C@@H](NC(=O)CNC(=O)[C@H](CCC(N)=O)NC(=O)C1(NC(=O)[C@@H](N)Cc2c[nH]cn2)CCC1)[C@@H](C)O)[C@@H](C)O)C(C)C)C(=O)N[C@@H](CCCCNC(=O)CC[C@H](NC(=O)COCCOCCNC(=O)COCCOCCNC(=O)CC[C@H](NC(=O)CC[C@H](NC(=O)CCCCCCCCCCCCCCCCC(=O)O)C(=O)O)C(=O)O)C(=O)O)C(=O)N[C@H](C(N)=O)[C@@H](C)O [Chem. 38, N^ε28-[(4S)-4-carboxy-4-[[2-[2-[2-[[2-[2-[2-[[(4S)-4-carboxy-4-[[(4S)-4-carboxy-4-(17-carboxyheptadecanoylamino)butanoyl]amino]butanoyl]amino]ethoxy]ethoxy]acetyl]amino]ethoxy]ethoxy]acetyl]amino]butanoyl]-[Acb2,Leu10,Glu15,Glu21,Ile27,Lys28]-Glucagon amide] (H-H[Ac4c]QGTFTSDLSKYLESRRAQEFVQWLIK([γGlu-AEEA-AEEA-γGlu-γGlu-C18 diacid])T-NH2; N-terminus assumed) |
